According to patent publication US20120021905A1, “Pesticidal Mixtures” (priority 2009, published 2012):
Where two headings read alike, the source gives them in different places.

Legend:
Details in all cases: 7 days after inoculation, 405 nm
Pyricularia oryzae = type: cell-based
Septoria tritici = tested on: Septoria tritici
Botrytis cinerea = assay: Microtest: activity against the grey mold Botrytis cinerea in the microtiterplate test (Botrci); type: cell-based

**Q.** Which Observed efficacy (Pyricularia oryzae; 63 ppm) does the source give for `O=[N+]([O-])NC1=NCCN1Cc1ccc(Cl)nc1` [Imidacloprid, imidacloprid] here?
**A.** 0

**Q.** And the Observed efficacy (Septoria tritici; 4 ppm)?
**A.** 2

**Q.** Which Observed efficacy (Pyricularia oryzae; 0.001 ppm) does the source give for `COC(=O)N(OC)c1ccccc1COc1ccn(-c2ccc(Cl)cc2)n1` [Pyraclostrobin] here?
**A.** 21

**Q.** And the Observed efficacy (Septoria tritici; 0.004 ppm)?
**A.** 49

**Q.** `C/C(=N\C#N)N(C)Cc1ccc(Cl)nc1` [acetamipyrid] was tested. Which Observed efficacy (Pyricularia oryzae; 63 ppm) did it give?
**A.** 0

**Q.** `CN/C(=N\[N+](=O)[O-])NCc1cnc(Cl)s1` [clothianidin] was tested. Which Observed efficacy (Botrytis cinerea; 16 ppm) did it give?
**A.** 0

**Q.** Which Observed efficacy (Pyricularia oryzae; 0.063 ppm) does the source give for `N#Cc1nn(-c2c(Cl)cc(C(F)(F)F)cc2Cl)c(N)c1[S+]([O-])C(F)(F)F` (stereo not drawn) [fipronil] here?
**A.** 0

**Q.** And the Observed efficacy (Botrytis cinerea; 0.016 ppm)?
**A.** 0

**Q.** With `COCC(=O)N(c1c(C)cccc1C)C(C)C(=O)OC` (stereo not drawn) [metalaxyl, Metalaxyl] as the molecule, how does the Observed efficacy (Pyricularia oryzae; 4 ppm) read?
**A.** 0

**Q.** Which Observed efficacy (Pyricularia oryzae; 1 ppm) does the source give for `CN1COCN(Cc2cnc(Cl)s2)/C1=N\[N+](=O)[O-]` [thiamethoxam] here?
**A.** 41

**Q.** What about the Observed efficacy (Botrytis cinerea; 16 ppm) of the same molecule?
**A.** 0

**Q.** What about the Observed efficacy (Septoria tritici; 1 ppm) of the same molecule?
**A.** 62
